Data: US4806538A, “Piperazine compound as PAF-antagonist” (Fujisawa Pharmaceutical Co., Ltd., priority 1984, dated 1989)
In brackets after ≈: the same amount, converted by molar mass.

How the values were obtained:
[1] = system: Platelet aggregation induced with PAF; test: Test 1: inhibition of PAF-induced platelet aggregation in platelet rich plasma; format: cell-based, Japanese white rabbit; conditions: Oryctolagus cuniculus, rabbit PRP, 5×10^5 cells/mm^3, final concentration of PAF usually 20 nM
Experimental: (Inhibition of platelet aggregation)
Blood was collected through the polyethylene catheter introduced into the carotid artery of male Japanese white rabbit (2.5 to 3 kg body weight). The blood was anticoagulated with 1 volume of 3.8% sodium citrate to 9 volume of blood. Platelet rich plasma (PRP) was prepared by centrifugation of the blood at 150 g for 10 minutes at room temperature. The PRP was diluted with platelet poor plasma obtained by further centrifugation of the blood at 1,000 g for 20 minutes. The platelet number was 5×10^5 cells/mm^3. Platelet aggregation induced with PAF was measured by the nephelometric technique of Born and Cross [cf. Journal of Physiology 168, 178-188 (1963)] using HKK Hema tracer (trade name, made by Niko Bioscience Inc.).
Activities of inhibitors were expressed as IC50 value, i.e. concentrations required to inhibit the platelet aggregation response by 50%. The final concentration of PAF was usually 20 nM.

[2] = system: vascular permeability increase induced by intradermally injected PAF; test: Test 4: inhibition of vascular permeability increase induced by intradermally injected PAF in mice (test compound orally); format: in vivo, ddY mice; conditions: 100 mg/kg orally, 30 minutes before Evans blue; PAF 50 ng intradermally; 30 minutes after PAF
Experimental: (§1) (Inhibition of vascular permeability increase induced by intradermally injected PAF in mice)
Five-week old male ddY mice were used. The test compound suspended in 0.5 methylcellulose suspension was administered orally 30 minutes before the Evans blue injection (0.125% solution in saline, 10 ml/kg, i.v.).
PAF (50 ng, 50 μl per site) was injected intradermally to the depilated back of the mice 5 minutes after the Evans blue injection.
(§2) The inhibitory activity of the test compound was monitored 30 minutes after the PAF injection by assessment of blueing reaction with Evans blue dye in mice skin.

[3] = system: vascular permeability increase induced by intradermally injected PAF; test: Test 3: inhibition of vascular permeability increase induced by intradermally injected PAF in mice (test compound i.p.); format: in vivo, ddY mice; conditions: 10 mg/kg i.p., 15 minutes before Evans blue; PAF 50 ng intradermally; 30 minutes after PAF
Experimental: as §1
Six-week old male ddY mice were used. The test compound was administered intraperitoneally 15 minutes before the Evans blue injection (0.125% solution in saline, 0.2 ml/mouse, i.v.).
PAF (50 ng, 50 μl per size) was injected intradermally to the depilated back of the mice 5 minutes after the Evans blue injection.
as §2

[4] = system: synthetic PAF induced hypotension; test: Test 2: inhibition of hypotensive effect induced by intravenously injected PAF in rats; format: in vivo, Sprague-Dowley rats; conditions: 3 minutes before PAF (1 μg/kg i.v.), anesthetized rats
Experimental: (Inhibition of hypotensive effect induced by intraveneously injected PAF in rats)
Seven-week old Sprague-Dowley rats were anesthetized with urethane (1 g/kg, i. p.). Catheters were introduced into the femoral artery and vein for the measurement of arterial pressure and the administration of the test compound, respectively. Blood pressure was recorded from femoral artery using a transducer coupled to the Biophysiograph 180 System (San-Ei Instrument Co., Ltd.). Inhibitory activity of the test compound was shown in the following Table as the inhibition percentage of the synthetic PAF induced hypotension. PAF was administered intravenously at a dose of 1 μg/kg. The test compound was administered intravenously 3 minutes before PAF injection.

| IC50 [1] | Structure (SMILES) | other results |
| --- | --- | --- |
| 0.55 µg/mL (≈ 1.59 µM) | CSCCCC1NC(=O)[C@@H](Cc2cn(C)c3ccccc23)NC1=O (single isomer, unassigned) [Test compound 5] | – |
| 0.71 µg/mL (≈ 2.14 µM) | CSCC[C@H]1NC(=O)[C@@H](Cc2cn(C)c3ccccc23)NC1=O [Example 1, (3R,6R)-3-(1-methylindol-3-ylmethyl)-6-(2-methylthioethyl)piperazine-2,5-dione] | – |
| 0.84 µg/mL (≈ 2.34 µM) | CSCC[C@@H]1C(=O)N(C)[C@H](Cc2cn(C)c3ccccc23)C(=O)N1C [Example 4, (3R,6R)-1,4-dimethyl-3-(1-methylindol-3-ylmethyl)-6-(2-methylthioethyl)piperazine-2,5-dione] | – |
| 0.16 µg/mL (≈ 0.441 µM) | C[C@H](c1cn(C)c2ccccc12)[C@H]1NC(=O)[C@@H](Cc2ccccn2)NC1=O [Example 18, (3R,6R)-3-[(R)-1-(1-methylindol-3-yl)ethyl]-6-(2-pyridylmethyl)piperazine-2,5-dione] | Inhibition of vascular permeability increase (%) [2]: 56.7% |
| 1.04 µg/mL (≈ 3.32 µM) | CC(C)C[C@H]1NC(=O)[C@@H](Cc2cn(C)c3ccccc23)NC1=O [Test compound 2] | Inhibition of vascular permeability increase (%) [3]: 30%; Inhibition maximum (%) of hypotensive effect ([4]; 10 mg/kg i.v.): 75% |
| 1.2 µg/mL (≈ 3 µM) | Cn1cc(C[C@H]2NC(=O)[C@@H](Cc3cn(C)c4ccccc34)NC2=O)c2ccccc21 [Test compound 7] | – |
| 0.58 µg/mL (≈ 1.85 µM) | CCCC[C@H]1NC(=O)[C@@H](Cc2cn(C)c3ccccc23)NC1=O [Test compound 8] | – |
| 0.061 µg/mL (≈ 0.178 µM) | CSCC[C@H]1NC(=O)[C@@H]([C@H](C)c2cccc3ccccc23)NC1=O [Test compound 9] | Inhibition of vascular permeability increase (%) [3]: 40%; Inhibition maximum (%) of hypotensive effect ([4]; 3 mg/kg i.v.): 51% |
| 0.48 µg/mL (≈ 1.46 µM) | CSCC[C@H]1NC(=O)[C@@H](Cc2cccc3ccccc23)NC1=O [Test compound 10] | – |
| 0.58 µg/mL (≈ 1.53 µM) | CSCC[C@H]1NC(=O)[C@@H](Cc2c3ccccc3cc3ccccc23)NC1=O [Test compound 11] | – |
| 0.65 µg/mL (≈ 1.9 µM) | CSCC[C@H]1NC(=O)[C@@H]([C@@H](C)c2cccc3ccccc23)NC1=O [Test compound 12] | – |
| 0.72 µg/mL (≈ 1.77 µM) | CSCC[C@H]1NC(=O)[C@@H](Cc2c(-c3ccccc3)n(C)c3ccccc23)NC1=O [Test compound 13] | – |
| 0.93 µg/mL (≈ 3.11 µM) | CCC[C@H]1NC(=O)[C@@H](Cc2cn(C)c3ccccc23)NC1=O [Test compound 14] | – |
| 0.59 µg/mL (≈ 1.59 µM) | CSCC[C@@H]1C(=O)N(C)[C@H]([C@H](C)c2cccc3ccccc23)C(=O)N1C [Test compound 16] | – |
